Where a name gives a salt, the structure may show the parent alone.
Key:
[1] = system: phenylquinone induced writhing; assay: phenyl-p-quinone writhing assay in mice (analgesia); type: in vivo; conditions: Mus musculus, sc, dose for approximately 50% inhibition of writhing
Description: Some of the benzopyrrolobenzodiazepines and quinobenzodiazepines of the present invention are also useful as analgetics due to their ability to alleviate pain in mammals. […] Exptl. Biol Med., 95 729 (1957)]. Thus, for instance, the subcutaneous dose effecting an approximately 50% inhibition of writhing (ED50) in mice produced in this assay is as shown in Table 2.

[2] = system: apomorphine climbing; assay: climbing mice assay (antipsychotic activity, apomorphine-induced climbing); type: in vivo, mice (CK-1 male); conditions: Mus musculus, po, apomorphine 1.5 mg/kg sc challenge
Method: Antipsychotic activity is determined in the climbing mice assay by a method similar to those described by P. Protais, et al., Psychopharmacol., 50, 1 (1976) and B. Costall, Eur. J. Pharmacol., 50, 39 (1978).
The subject CK-1 male mice (23-27 grams) are group-housed under standard laboratory conditions. The mice are individually placed in wire mesh stick cages (4"×4"×10") and are allowed one hour for adaptation and exploration of the new environment. Then apomorphine is injected subcutaneously at 1.5 mg/kg, a dose causing climbing in all subjects for 30 minutes. Compounds to be tested for antipsychotic activity are injected intraperitoneally or given oral doses at various time intervals, e.g. 30 minutes, 60 minutes, etc. prior to the apomorphine challenge at a screening dose of 10-60 mg/kg.
For evaluation of climbing, 3 readings are taken at 10, 20 and 30 minutes after apomorphine administration according to the following scale:
4 paws on bottom (no climbing)
2 paws on the wall (rearing)
4 paws on the wall (full climb)
Mice consistently climbing before the injection of apomorphine will be discarded.
With full-developed apomorphine climbing, the animals are hanging on to the cage walls, rather motionless, over longer periods of time. By contrast, climbs due to mere motor stimulation usually only last a few seconds.
The climbing scores are individually totaled (maximal score: 6 per mouse over 3 readings) and the total score of the control group (vehicle intraperitoneally--apomorphine subcutaneously) is set to 100%. ED50 values with 95% confidence limits, calculated by a Linear Regression Analysis, of some of the instant benzopyrrolobenzodiazepines as well as a standard antipsychotic agent are presented in Table 1.

Row | Compound | ED50 [1] | ED50 [2]
1 | CCC(=O)O[C@](Cc1ccccc1)(c1ccccc1)[C@H](C)CN(C)C [propoxyphene, reference compound] | 3.9 mg/kg | –
2 | CN1CCN(C2=Nc3cc(Br)ccc3-n3ccc4cccc2c43)CC1 [9-Bromo-6-(4-methyl-1-piperazinyl)benzo[b]pyrrolo[3,2,1-jk][1,4]benzodiazepine] | 0.72 mg/kg | 13.5 mg/kg
3 | CN1CCN(C2=Nc3cc(Cl)ccc3N3CCc4cccc2c43)CC1 [9-chloro-6-(4-methyl-1-piperazinyl)-1,2-dihydrobenzo[b]pyrrolo[3,2,1-jk][1,4]benzodiazepine] | 4.1 mg/kg | –
4 | Cc1ccc2c(c1)N=C(N1CCN(C)CC1)c1cccc3c1N2CC3 [9-Methyl-6-(4-methyl-1-piperazinyl)-1,2-dihydrobenzo[b]pyrrolo[3,2,1-jk][1,4]benzodiazepine] | 0.34 mg/kg | 25.5 mg/kg
5 | CN1CCN(C2=Nc3cc(Cl)ccc3Nc3ccccc32)CC1 [clozapine, reference compound] | – | 23.2 mg/kg
6 | CN1CCN(C2=Nc3cc(Br)ccc3N3CCc4cccc2c43)CC1 [9-Bromo-6-(4-methyl-1-piperazinyl)-1,2-dihydrobenzo[b]pyrrolo[3,2,1-jk][1,4]benzodiazepine] | – | 30.8 mg/kg
7 | CN(C)CCN(C)C1=Nc2cc(Br)ccc2N2CCc3cccc1c32 [9-Bromo-6-[(2-dimethylamino)-N-methylethylamino]-1,2-dihydrobenzo[b]pyrrolo[3,2,1-jk][1,4]benzodiazepine Dimaleate salt] | 8.1 mg/kg | –
8 | CN1CCN(C2=Nc3ccccc3-n3ccc4cc(Cl)cc2c43)CC1 [4-Chloro-6-(4-methyl-1-piperazinyl)benzo[b]pyrrolo[3,2,1-jk][1,4]benzodiazepine] | – | 13.4 mg/kg

— patent US4663453A, “Benzo[b]pyrrolo[3,2,1-jk][1,4]benzodiazepines having dopamine receptor activity” (Hoechst-Roussel Pharmaceuticals Inc., priority 1985, dated 1987)
